In publication PMC12057359, “Inhibitory effect of copper chelators on the budding in Candida albicans” (Antimicrobial Agents and Chemotherapy, 2025):
Like-named read-outs stand apart in the source and are kept apart here. Numbered stars: 1 amine (or outer) side, 2 acyl side, 3 side chain; on linkers, the order of the positions; unused ones are H or OH. Bridge positions count the residues as written; N and C are the ends. Square brackets hold non-standard residues; d marks the D form. Peptide text beside a SMILES is read from it. * marks the point of attachment. hTyr(3S-OH,4S-OH,3'-OSO3H) = N[C@H](C(=O)O)[C@H](O)[C@@H](O)c1ccc(O)c(OS(=O)(=O)O)c1; Orn(4R-OH,5R-OH) = O=C([C@H](C[C@@H](O)[C@@H](O)N[*:3])N[*:1])[*:2]; Pro(3S-OH,4S-Me) = C[C@H]1CN[C@H](C(=O)O)[C@H]1O; X1 = CCCCCOc1ccc(-c2cc(-c3ccc(C(=O)*)cc3)no2)cc1; Gln(3R-OH) = NC(=O)C[C@@H](O)[C@H](N)C(=O)O; Hyp = O=C(O)[C@@H]1C[C@@H](O)CN1

How the values were obtained:
C. albicans JCM1542 [1] = assay: iHOPE antimicrobial microdilution assay (turbidity OD600); assay type: cell-based, Candida albicans; conditions: for IC50: Candida albicans, read-out: IC50 against C. albicans JCM1542; for antifungal activity / inhibition of budding against C. albicans (in words): C. albicans JCM1542
[2] = iHOPE in vitro cytotoxicity assessment (Cell Count Reagent SF); assay type: cell-based, human; conditions: human
Protocol: The method for in vitro cytotoxicity assessment using Cell Count Reagent SF (Nacalai Tesque) has been described previously ([15]). […] Test compounds were added to the culture medium, and then the plates were incubated at 28°C for 24 h.

C. albicans JCM1542 [3] = assay type: cell-based, Candida albicans
C. glabrata JCM3761 = assay: iHOPE antimicrobial microdilution assay (turbidity OD600); assay type: cell-based, Candida glabrata; conditions: Nakaseomyces glabratus, read-out: IC50 against C. glabrata JCM3761
C. tropicalis JCM1541 = assay: as above; assay type: cell-based; conditions: Candida tropicalis, read-out: IC50 against C. tropicalis JCM1541
C. auris Ci6684 = assay: as above; assay type: cell-based, Candida auris; conditions: Candidozyma auris, read-out: IC50 against C. auris Ci6684
C. auris VPCI673 = assay: as above; assay type: cell-based, Candida auris; conditions: Candidozyma auris, read-out: IC50 against C. auris VPCI673
A. fumigatus Af293 = assay: iHOPE antimicrobial microdilution assay; assay type: cell-based, Aspergillus fumigatus; conditions: Aspergillus fumigatus
P. oryzae Kita-1 = assay: microbe, parasite or virus in culture; assay type: cell-based, Pyricularia oryzae; conditions: Pyricularia oryzae, KITA1, read-out: IC50 against P. oryzae Kita-1
S. aureus 209P = assay: iHOPE antimicrobial microdilution assay; assay type: cell-based, Staphylococcus aureus; conditions: Staphylococcus aureus, 209P, read-out: IC50 against S. aureus 209P
E. coli HO-141 = assay: iHOPE antimicrobial microdilution assay; assay type: cell-based, Escherichia coli; conditions: Escherichia coli
[4] = JCM1542, MOPS-RPMI medium, 28°C, 24 h, OD600, standard deviation in parentheses, n = 3
[5] = SD in parentheses, n = 3, read-out: IC50 against HL-60 RCB0041 (cytotoxicity)
[6] = C. albicans JCM1542, MOPS-RPMI medium, 24 h
[7] = JCM3761, MOPS-RPMI medium, 24 h, SD in parentheses, n = 3
[8] = JCM1541, MOPS-RPMI medium, 24 h, SD in parentheses, n = 3
[9] = CI6684, MOPS-RPMI medium, 24 h, SD in parentheses, n = 3
[10] = VPCI673, MOPS-RPMI medium, 24 h, SD in parentheses, n = 3
[11] = AF293, SD in parentheses, n = 3, read-out: IC50 against A. fumigatus Af293
[12] = HO141, SD in parentheses, n = 3, read-out: IC50 against E. coli HO-141

Compound	IC50 (C. albicans JCM1542 [1]; [4]) [nM]	IC50 [2, 5] [µM]	IC50 (C. glabrata JCM3761; [7]) [nM]	IC50 (C. tropicalis JCM1541; [8]) [nM]	IC50 (C. auris Ci6684; [9]) [nM]	IC50 (C. auris VPCI673; [10]) [nM]	further results
[C-]#[N+][C@H](C)CC(=O)N[C@H]1CC[C@H](NC(=O)C[C@@H](C)[N+]#[C-])CC1 [16a]	610	> 30					
COc1cc(-c2ccccn2)nc(/C=N/O)c1SC [collismycin]							morphological change induced in C. albicans (C. albicans JCM1542 [3]; [6]): elongated, but not as long as SF2768, and tortuous hyphae
[C-]#[N+][C@@H](C)CC(=O)N[C@H]1CC[C@@H](NC(=O)C[C@H](C)[N+]#[C-])CC1 [15b]	19	> 30	10	26	62	34	
CCCCCOc1ccc(-c2cc(-c3ccc(C(=O)N[C@H]4C[C@@H](O)[C@@H](O)NC(=O)[C@@H]5[C@@H](O)[C@@H](C)CN5C(=O)[C@H]([C@H](O)CC(N)=O)NC(=O)[C@H]([C@H](O)[C@@H](O)c5ccc(O)c(OS(=O)(=O)O)c5)NC(=O)[C@@H]5C[C@@H](O)CN5C(=O)[C@H]([C@@H](C)O)NC4=O)cc3)no2)cc1 [Micafungin, micafungin] (X1-[Orn(4R-OH,5R-OH)]T[Hyp][hTyr(3S-OH,4S-OH,3'-OSO3H)][Gln(3R-OH)][Pro(3S-OH,4S-Me)]; lactam 1-C)		> 30					IC50 (C. albicans JCM1542 [1]; JCM1542, 24 h): 3.3 nM; IC50 (C. glabrata JCM3761; JCM3761, 24 h): 4.9 nM; IC50 (C. tropicalis JCM1541; JCM1541, 24 h): 5.4 nM; IC50 (C. auris Ci6684; CI6684, 24 h): 29 nM; IC50 (C. auris VPCI673; VPCI673, 24 h): 27 nM; IC50 (A. fumigatus Af293; AF293, read-out: IC50 against A. fumigatus Af293): 4 nM; IC50 (P. oryzae Kita-1): > 30 µM; IC50 (S. aureus 209P): > 30 µM; IC50 (E. coli HO-141; HO141, read-out: IC50 against E. coli HO-141): > 30 µM; morphological change induced in C. albicans (C. albicans JCM1542 [3]; [6]): yeast-rich morphology
[C-]#[N+][C@@H](C)CC(=O)Nc1cccc(NC(=O)C[C@H](C)[N+]#[C-])c1 [14b]	20	> 30					
[C-]#[N+][C@@H](C)CC(=O)N[C@H]1CC[C@H](NC(=O)C[C@H](C)[N+]#[C-])CC1 [16b]	610	> 30					
[C-]#[N+][C@H](C)CC(=O)NCc1ccc(NC(=O)C[C@@H](C)[N+]#[C-])cc1 [10a]	380	> 30					
[C-]#[N+][C@H](C)CC(=O)NCc1ccc(N)cc1 [8a]	770	> 30					antifungal activity / inhibition of budding against C. albicans (in words) (C. albicans JCM1542 [1]): weak antifungal activity and inhibition of budding
CC(C)=CCC/C(C)=C/CC/C(C)=C/CO [farnesol]							growth form of C. albicans under hyphal growth conditions (C. albicans JCM1542 [3]; 3 µM, MOPS-RPMI): the cells grew as yeast form
C/C=C/C(=O)NCc1ccc(N)cc1 [compound 9]	> 30000	> 30					antifungal activity / inhibition of budding against C. albicans (in words) (C. albicans JCM1542 [1]): did not mediate any changes in either the survival rate or morphology
C[C@@H]1[C@H](O)[C@@H](C)/C=C/C=C/C=C/C=C/C=C/C=C/C=C/[C@H](O[C@@H]2O[C@H](C)[C@@H](O)[C@H](N)[C@@H]2O)C[C@@H]2O[C@](O)(C[C@@H](O)C[C@@H](O)[C@H](O)CC[C@@H](O)C[C@@H](O)CC(=O)O[C@H]1C)C[C@H](O)[C@H]2C(=O)O [Amphotericin B, amphotericin B]	39		63	46	410	440	IC50 (A. fumigatus Af293; [11]): 210 nM; IC50 (P. oryzae Kita-1): 0.16 µM; IC50 (S. aureus 209P; SD in parentheses, n = 3): > 30 µM; IC50 (E. coli HO-141; [12]): > 30 µM; IC50 [2]: 17 µM; morphological change induced in C. albicans (C. albicans JCM1542 [3]): yeast-rich morphology
[C-]#[N+][C@H](C)CC(=O)NCCc1ccc(NC(=O)C[C@@H](C)[N+]#[C-])cc1 [12a]	12	> 30	10	13	58	180	
[C-]#[N+][C@@H](C)CC(=O)NCCc1ccc(NC(=O)C[C@H](C)[N+]#[C-])cc1 [12b]	12	> 30	12	12	55	140	
[C-]#[N+][C@H](C)CC(=O)Nc1cccc(NC(=O)C[C@@H](C)[N+]#[C-])c1 [14a]	54	> 30					
OC(Cn1cncn1)(Cn1cncn1)c1ccc(F)cc1F [Fluconazole, fluconazole]	390		690	400	> 30000	> 30000	IC50 (A. fumigatus Af293; [11]): > 30000 nM; IC50 (P. oryzae Kita-1): > 30 µM; IC50 (S. aureus 209P; SD in parentheses, n = 3): > 30 µM; IC50 (E. coli HO-141; [12]): > 30 µM; IC50 ([2]; HL-60 RCB0041 cells (promyelocytic leukemia cell line), SD in parentheses, n = 3, read-out: IC50 against HL-60 RCB0041 (cytotoxicity)): > 30 µM; morphological change induced in C. albicans (C. albicans JCM1542 [3]): yeast-rich morphology
